In patent publication US20220324835A1 (Nurix Therapeutics, Inc., priority 2018, published 2022):

Experiments:
Cbl-b [1] = molecular target: T1, Cbl-b (Homo sapiens, UniProt Q13191); experiment: Cbl-b activity assay (Cbl-b inhibition assay), TR-FRET of Cbl-b interaction with UbcH5B-Ub; assay type: biochemical; details: assay buffer with 100 mM NaCl, 60 nM Src kinase; read-out: Cbl-b activity IC50
In short: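 TR-FRET readout of Cbl-b binding to Bodipy-fluorescein N-terminally labeled Ub conjugated to UbcH5B C85K, measured with compound present. After compound incubation, 60 nM Src kinase with 1 mM ATP and 5 mM MgCl2 (final) was added for 1.5 h, then a further 1 h incubation; asterisked values used 50 mM NaCl buffer and 30 nM Src.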

Cbl-b [2] = molecular target: T1, Cbl-b; experiment: Cbl-b inhibition assay (Cbl-b activity assay, FRET, Biological Example 1; 100 mM NaCl, 60 nM Src kinase); assay type: biochemical; details: upper bound stated in text lists; read-out: IC50 values in the Cbl-b inhibition assay of Biological Example 1
From the text: FIG. 1A and FIG. 1B show a series of diagrams depicting the activity assay utilized to assay inhibition of Cbl-b activity by a Cbl-b inhibitor. FIG. 1A: The activity assay mixture comprises an N-terminal biotinylated Avi-tagged Cbl-b, an E2 enzyme (i.e., UbcH5B) irreversibly conjugated to Bodipy-Fluorescein tagged ubiquitin (i.e., UbcH5B-Ub), a Src kinase, streptavidin-terbium, and assay buffer. Phosphorylation of Cbl-b by the Src kinase allows UbcH5B-Ub to bind to Cbl-b and bring the Bodipy-Fluorescein tagged ubiquitin in proximity to the streptavidin-terbium bound to the N-terminal biotinylated Avi-tagged Cbl-b. […] FIG. 1B: In the presence of a Cbl-b inhibitor, such as one described herein, Cbl-b is unable to bind UbcH5B-Ub. The lack of a FRET signal indicates Cbl-b is inhibited by the Cbl-b inhibitor. Ub indicates ubiquitin; N-Avi indicates biotinylated Avi-tag at the N-terminus of Cbl-b; inhibitor indicates Cbl-b inhibitor.
The lack of a FRET signal indicates Cbl-b is inhibited by the Cbl-b inhibitor. In FIG. 1A and FIG. 1B, Ub indicates ubiquitin; N-Avi indicates biotinylated Avi-tag at the N-terminus of Cbl-b; and inhibitor indicates Cbl-b inhibitor.

T1 sequence (Q13191 36-427): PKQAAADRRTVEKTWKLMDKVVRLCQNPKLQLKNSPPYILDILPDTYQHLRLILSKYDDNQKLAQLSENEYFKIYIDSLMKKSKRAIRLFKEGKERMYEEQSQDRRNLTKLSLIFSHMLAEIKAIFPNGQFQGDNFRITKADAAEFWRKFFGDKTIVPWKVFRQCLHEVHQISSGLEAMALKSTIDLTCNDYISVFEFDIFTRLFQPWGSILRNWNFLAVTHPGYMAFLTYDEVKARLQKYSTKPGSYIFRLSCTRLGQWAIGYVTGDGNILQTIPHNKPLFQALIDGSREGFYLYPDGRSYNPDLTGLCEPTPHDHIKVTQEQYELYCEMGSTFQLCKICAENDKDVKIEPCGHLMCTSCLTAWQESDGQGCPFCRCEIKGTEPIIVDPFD

Compound	IC50 (Cbl-b [1])	IC50 (Cbl-b [2])
CC(c1cc2c(c(C(F)(F)F)c1)CN(c1cccc(C3(Cc4nncn4C)COC3)c1)C2=O)n1ccnc1 (centres unmarked) [Compound 542, 6-(1-(1H-imidazol-1-yl)ethyl)-2-(3-(3-((4-methyl-4H-1,2,4-triazol-3-yl)methyl)oxetan-3-yl)phenyl)-4-(trifluoromethyl)isoindolin-1-one]	< 100 nM	≤ 100 nM
CN(c1cc2c(c(C(F)(F)F)c1)CN(c1cccc([C@@](C)(F)C(F)(F)c3nncn3C)c1)C2=O)[C@H]1CNC[C@@H]1F [Example 550, 6-(((3S,4S)-4-fluoropyrrolidin-3-yl)(methyl)amino)-2-(3-((R)-1,1,2-trifluoro-1-(4-methyl-4H-1,2,4-triazol-3-yl)propan-2-yl)phenyl)-4-(trifluoromethyl)iso-indolin-1-one]	< 100 nM	≤ 100 nM
CN(c1cc2c(c(C(F)(F)F)c1)CN(c1cccc([C@@](C)(F)C(F)(F)c3nncn3C)c1)C2=O)[C@@H]1CNC[C@H]1F [Example 551, 6-(((3R,4R)-4-fluoropyrrolidin-3-yl)(methyl)amino)-2-(3-((R)-1,1,2-trifluoro-1-(4-methyl-4H-1,2,4-triazol-3-yl)propan-2-yl)phenyl)-4-(trifluoromethyl)iso-indolin-1-one]	< 100 nM	≤ 100 nM
Cn1cnnc1CC1(c2cccc(N3Cc4c(cc(CN5CCC(F)CC5)cc4C4CC4)C3=O)c2)COC1 [Example 552, 4-cyclopropyl-6-((4-fluoropiperidin-1-yl)methyl)-2-(3-(3-((4-methyl-4H-1,2,4-triazol-3-yl)methyl)oxetan-3-yl)phenyl)isoindolin-1-one]	< 100 nM	≤ 100 nM
Cn1cnnc1CC1(c2cccc(N3Cc4c(cc(C(O)C(F)(F)F)cc4C(F)(F)F)C3=O)c2)COC1 (centres unmarked) [Example 580, 2-(3-(3-((4-Methyl-4H-1,2,4-triazol-3-yl)methyl)oxetan-3-yl)phenyl)-6-(2,2,2-trifluoro-1-hydroxyethyl)-4-(trifluoromethyl)isoindolin-1-one]	< 100 nM	≤ 100 nM
Cc1cc(C(=O)Nc2cccc(C3(Cc4nncn4C)COC3)c2)n2nc(C)cc2n1 [Example 597, 2,5-dimethyl-N-(3-(3-((4-methyl-4H-1,2,4-triazol-3-yl)methyl)oxetan-3-yl)phenyl)pyrazolo[1,5-a]pyrimidine-7-carboxamide]	100 to 300 nM	≤ 300 nM
Cn1cnnc1CC1(c2cccc(N3Cc4c(cc(C5CCCOC5)cc4C(F)(F)F)C3=O)c2)COC1 (centres unmarked) [Example 615, 2-(3-(3-((4-methyl-4H-1,2,4-triazol-3-yl)methyl)oxetan-3-yl)phenyl)-6-(tetrahydro-2H-pyran-3-yl)-4-(trifluoromethyl)isoindolin-1-one]	< 100 nM	≤ 100 nM
CC1=C(c2cc3c(c(C(F)(F)F)c2)CN(c2cccc(C4(Cc5nncn5C)COC4)c2)C3=O)CCO1 [Example 616, 6-(2-methyl-4,5-dihydrofuran-3-yl)-2-(3-(3-((4-methyl-4H-1,2,4-triazol-3-yl)methyl)oxetan-3-yl)phenyl)-4-(trifluoromethyl)isoindolin-1-one]	< 100 nM	≤ 100 nM
Cn1cnnc1C[C@H](c1cccc(N2Cc3c(cccc3C(F)(F)F)C2=O)c1)C(F)F [Example 617, (R)-2-(3-(1,1-difluoro-3-(4-methyl-4H-1,2,4-triazol-3-yl)propan-2-yl)phenyl)-4-(trifluoromethyl)isoindolin-1-one]	100 to 300 nM	≤ 300 nM
Cn1cnnc1CC1(c2cccc(N3Cc4c(cc(CN5CC[C@H](F)[C@@H](F)C5)cc4C(F)(F)F)C3=O)c2)COC1 [Example 626a, 6-(((3S,4S)-3,4-difluoropiperidin-1-yl)methyl)-2-(3-(3-((4-methyl-4H-1,2,4-triazol-3-yl)methyl)oxetan-3-yl)phenyl)-4-(trifluoromethyl)isoindolin-1-one]	< 100 nM	≤ 100 nM
Cn1cnnc1CC1(c2cccc(N3Cc4c(cc(CN5CC[C@@H](F)[C@H](F)C5)cc4C(F)(F)F)C3=O)c2)COC1 [Example 626b, 6-(((3R,4R)-3,4-difluoropiperidin-1-yl)methyl)-2-(3-(3-((4-methyl-4H-1,2,4-triazol-3-yl)methyl)oxetan-3-yl)phenyl)-4-(trifluoromethyl)isoindolin-1-one]	< 100 nM	≤ 100 nM
Cn1cnnc1CC1(c2cccc(N3Cc4c(cc(CN5CCOC(C(F)F)C5)cc4C(F)(F)F)C3=O)c2)COC1 (centres unmarked) [Example 630, 6-{[2-(difluoromethyl)morpholin-4-yl]methyl}-2-(3-{3-[(4-methyl-1,2,4-triazol-3-yl)methyl]oxetan-3-yl}phenyl)-4-(trifluoromethyl)-3H-isoindol-1-one]	< 100 nM	≤ 100 nM
Cn1cnnc1CC1(c2cccc(N3Cc4c(cc(CN5CCc6ccncc6C5)cc4C(F)(F)F)C3=O)c2)COC1 [Example 638, 6-((3,4-dihydro-2,7-naphthyridin-2(1H)-yl)methyl)-2-(3-(3-((4-methyl-4H-1,2,4-triazol-3-yl)methyl)oxetan-3-yl)phenyl)-4-(trifluoromethyl)isoindolin-1-one]	< 100 nM	≤ 100 nM
C[C@@H]1CCN(Cc2cc3c(c(C(F)(F)F)c2)CN(c2cccc(C4(Cc5nncn5C)COC4)c2)C3=O)C[C@@H]1F [Example 639a, 6-(((3R,4R)-3-fluoro-4-methylpiperidin-1-yl)methyl)-2-(3-(3-((4-methyl-4H-1,2,4-triazol-3-yl)methyl)oxetan-3-yl)phenyl)-4-(trifluoromethyl)isoindolin-1-one]	< 100 nM	≤ 100 nM
C[C@H]1CCN(Cc2cc3c(c(C(F)(F)F)c2)CN(c2cccc(C4(Cc5nncn5C)COC4)c2)C3=O)C[C@H]1F [Example 639b, 6-(((3S,4S)-3-fluoro-4-methylpiperidin-1-yl)methyl)-2-(3-(3-((4-methyl-4H-1,2,4-triazol-3-yl)methyl)oxetan-3-yl)phenyl)-4-(trifluoromethyl)isoindolin-1-one]	< 100 nM	≤ 100 nM
Cn1cnnc1CC1(c2cccc(N3Cc4c(cc(CN5CC6CC(C5)C6(F)F)cc4C(F)(F)F)C3=O)c2)COC1 [Example 640, 6-((6,6-difluoro-3-azabicyclo[3.1.1]heptan-3-yl)methyl)-2-(3-(3-((4-methyl-4H-1,2,4-triazol-3-yl)methyl)oxetan-3-yl)phenyl)-4-(trifluoromethyl)isoindolin-1-one]	< 100 nM	≤ 100 nM
Cn1cnnc1CC1(c2cccc(N3Cc4c(cc(CN5CCc6cccnc6C5)cc4C(F)(F)F)C3=O)c2)COC1 [Example 645, 6-((5,8-dihydro-1,7-naphthyridin-7(6H)-yl)methyl)-2-(3-(3-((4-methyl-4H-1,2,4-triazol-3-yl)methyl)oxetan-3-yl)phenyl)-4-(trifluoromethyl)isoindolin-1-one]	< 100 nM	≤ 100 nM
Cn1cnnc1CC1(c2cccc(N3Cc4c(cc(CN5CCC(F)(F)C(O)C5)cc4C(F)(F)F)C3=O)c2)COC1 (centres unmarked) [Example 647, 6-((4,4-difluoro-3-hydroxypiperidin-1-yl)methyl)-2-(3-(3-((4-methyl-4H-1,2,4-triazol-3-yl)methyl)oxetan-3-yl)phenyl)-4-(trifluoromethyl)isoindolin-1-one]	< 100 nM	≤ 100 nM
Cn1cnnc1CC1(c2cccc(N3Cc4c(cc(CN5CCc6cnccc6C5)cc4C(F)(F)F)C3=O)c2)COC1 [Example 648, 6-((3,4-dihydro-2,6-naphthyridin-2(1H)-yl)methyl)-2-(3-(3-((4-methyl-4H-1,2,4-triazol-3-yl)methyl)oxetan-3-yl)phenyl)-4-(trifluoromethyl)isoindolin-1-one]	< 100 nM	≤ 100 nM
Cn1cnnc1CC1(c2cccc(N3Cc4c(cc(CN5Cc6cccc(Cl)c6C5)cc4C(F)(F)F)C3=O)c2)COC1 [Example 657, 6-((4-chloroisoindolin-2-yl)methyl)-2-(3-(3-((4-methyl-4H-1,2,4-triazol-3-yl)methyl)oxetan-3-yl)phenyl)-4-(trifluoromethyl)isoindolin-1-one]	< 100 nM	≤ 100 nM
Cn1cnnc1CC1(c2cccc(N3Cc4c(cc(CN5Cc6cccc(C#N)c6C5)cc4C(F)(F)F)C3=O)c2)COC1 [Example 658, 2-((2-(3-(3-((4-methyl-4H-1,2,4-triazol-3-yl)methyl)oxetan-3-yl)phenyl)-3-oxo-7-(trifluoromethyl)isoindolin-5-yl)methyl)isoindoline-4-carbonitrile]	< 100 nM	≤ 100 nM
Cn1cnnc1CC1(c2cccc(N3Cc4c(cc(CN5Cc6ccc(Cl)cc6C5)cc4C(F)(F)F)C3=O)c2)COC1 [Example 659, 6-((5-chloroisoindolin-2-yl)methyl)-2-(3-(3-((4-methyl-4H-1,2,4-triazol-3-yl)methyl)oxetan-3-yl)phenyl)-4-(trifluoromethyl)isoindolin-1-one]	< 100 nM	≤ 100 nM
